A short description of data set [1]: Cytotoxicity against human CFBE41o- cells expressing CFTR P.Phe508del mutant at 10 uM incubated for 48 hrs by MTT assay. In kind it is toxicity, cell-based.
Data set [2] has as its system CFBE41o-. Briefly: Upregulation of BiP protein expression in human CFBE41o- cells expressing CFTR P.Phe508del mutant by Western blot analysis. In kind it is functional, cell-based.
The nature of data set [3]: Restoration of CFTR chloride channel activity in human CFBE41o- cells expressing CFTR P.Phe508del mutant assessed as increase in channel function by measuring Cl- current at 10 uM at -80 mV holding potential incubated for 48 hrs by whole cell patch clamp assay (reference value: 32.98 +/- 14.71 pA/pF). Format: functional.
Data set [4] has as its system CFBE41o-. Briefly: Upregulation of cleaved form of ATF6 protein expression in human CFBE41o- cells expressing CFTR P.Phe508del mutant by Western blot analysis. In kind it is functional, cell-based. In general terms: In western blotting, separated proteins are transferred to a membrane and probed.
The subject of data set [5] is CFBE41o-. Briefly: Induction of UPR in human CFBE41o- cells expressing CFTR P.Phe508del mutant assessed as upregulation of XBP1 mRNA expression by RT-PCR analysis. In kind it is functional, cell-based.
Data set [6] has as its system CFBE41o-. The experiment in a line: Upregulation of ATF6 protein expression in human CFBE41o- cells expressing CFTR P.Phe508del mutant by Western blot analysis. Format: functional, cell-based.
In data set [7] the test system is CFBE41o-. The experiment in a line: Restoration of CFTR chloride channel activity in human CFBE41o- cells expressing CFTR P.Phe508del mutant assessed as increase in transcription of CFTR P.Phe508del mutant mRNA expression by RT-qPCR analysis. In kind it is functional, cell-based.
For data set [8], the system named is CFBE41o-. The experiment in a line: Induction of UPR in human CFBE41o- cells expressing CFTR P.Phe508del mutant assessed as upregulation of IRE1 mRNA expression by RT-PCR analysis. Format: functional, cell-based.
Data set [9] concerns BHK. The experiment in a line: Restoration of CFTR chloride channel activity in […] BHK cells expressing 3HA-epitope tagged CFTR P.Phe508del mutant assessed as increase in exportation of mutant CFTR to membrane by measuring mature CFTR by immunoblot analysis. Format: functional, cell-based.
Data set [10] deals with CFBE41o-. Briefly: Induction of UPR in human CFBE41o- cells expressing CFTR P.Phe508del mutant assessed as upregulation of PERK mRNA expression by RT-PCR analysis. In kind it is functional, cell-based.

Active and inactive are the calls of the source. The rule behind the calls is not given here.

Regarding `CCN(CC)Cc1ccc(C(=O)N(CCc2ccccc2OC)[C@@H]2CCNC2)cc1`, the values for the Activity entry in data set [1] and in data set [3] were “Non-Toxic” and 82.67 pA/pF, respectively. The result in data set [2], in data set [4], in [5], in data set [6], in data set [7] and in data set [8] was Active. Moreover, the result in [9] and in [10] was Active.

Values taken from ChEMBL document CHEMBL5113449, “Evaluation of aminopyrrolidine amide to improve chloride transport in CFTR-defective cells” (Bioorg Med Chem Lett, 2022).
